Key:
chickweed = test: Test Example 5: herbicidal effect by foliage application, plastic box (Table 20, symbol P); assay type: in vivo, common chickweed (Stellaria media)
Excerpt: [Test Example 5] Herbicidal Effect Test by Foliage Application
Sterilized diluvial soil was placed in a plastic box having a length of 21 cm, a width of 13 cm, and a depth of 7 cm. The seeds of each of southern crabgrass, green foxtail, barnyard grass, wild oat, blackgrass, Italian ryegrass, windgrass, velvetleaf, redroot pigweed, lambsquarters, chickweed, false cleavers, persian speedwell, corn, soybean, rice, wheat, beet, and rapeseed were sowed in a spot-like manner and covered with the soil having a thickness of about 1.5 cm. Thereafter, the plants were grown in a greenhouse at 25° C. to 30° C. After 14-day growth of the plants, the emulsion agent of the compound of the present invention prepared according to Formulation Example 2 was diluted with water so as to achieve a predetermined herbicide amount, and the diluted emulsion agent was uniformly applied to a foliage part with a small-sized spray. Three weeks after the herbicide application, the effect of the herbicide on each plant was evaluated according to the criteria of Test Example 1.

barnyard grass [1] = test: Test Example 3: herbicidal effect by foliage application, Wagner pot (Table 18, symbol H); assay type: in vivo, barnyard grass (Echinochloa crus-galli)
Outline: (§1)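 Plants were sown in alluvial soil held under 0.1–0.5 cm standing water and grown 14 days in a greenhouse at 25–30 °C. An emulsifiable formulation, water-diluted to the set dose, was then sprayed onto the foliage, and effects were scored three weeks later using previously defined criteria.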

blackgrass = test: Test Example 5: herbicidal effect by foliage application, plastic box (Table 20, symbol J); assay type: in vivo, blackgrass (Alopecurus myosuroides)
Outline: (§2)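 Sow seeds spot-wise in sterilized diluvial soil; cover with ~1.5 cm soil. Grow 14 days in greenhouse, 25° C. to 30° C. Spray foliage with emulsion diluted to predetermined amount. Rate effect after 3 weeks.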

Chinese sprangletop = test: Test Example 3: herbicidal effect by foliage application, Wagner pot (Table 18, symbol D); assay type: in vivo, chinese sprangletop (Leptochloa chinensis)
Outline: as §1

Italian ryegrass = test: Test Example 5: herbicidal effect by foliage application, plastic box (Table 20, symbol K); assay type: in vivo, Italian ryegrass (Lolium multiflorum)
Outline: as §2

rice flat sedge = test: Test Example 3: herbicidal effect by foliage application, Wagner pot (Table 18, symbol E); assay type: in vivo, rice flat sedge (Cyperus iria)
Outline: as §1

wild oat = test: Test Example 5: herbicidal effect by foliage application, plastic box (Table 20, symbol I); assay type: in vivo, wild oat (Avena fatua)
Outline: as §2

persian speedwell = test: Test Example 5: herbicidal effect by foliage application, plastic box (Table 20, symbol R); assay type: in vivo, Persian speedwell (Veronica persica); settings: foliage application
Outline: as §2

green foxtail = test: Test Example 5: herbicidal effect by foliage application, plastic box (Table 20, symbol G); assay type: in vivo, green foxtail (Setaria viridis)
Outline: as §2

southern crabgrass = test: Test Example 5: herbicidal effect by foliage application, plastic box (Table 20, symbol F); assay type: in vivo, southern crabgrass (Digitaria ciliaris)
Outline: as §2

velvetleaf = test: Test Example 5: herbicidal effect by foliage application, plastic box (Table 20, symbol M); assay type: in vivo, velvetleaf (Abutilon theophrasti)
Outline: as §2

redroot pigweed = test: Test Example 5: herbicidal effect by foliage application, plastic box (Table 20, symbol N); assay type: in vivo, redroot pigweed (Amaranthus retroflexus)
Outline: as §2

barnyard grass [2] = test: Test Example 5: herbicidal effect by foliage application, plastic box (Table 20, symbol H); assay type: in vivo, barnyard grass (Echinochloa crus-galli)
Outline: as §2

lambsquarters = test: Test Example 5: herbicidal effect by foliage application, plastic box (Table 20, symbol O); assay type: in vivo, lambsquarters (Chenopodium album)
Outline: as §2

windgrass = test: Test Example 5: herbicidal effect by foliage application, plastic box (Table 20, symbol L); assay type: in vivo, windgrass (Apera spica-venti); settings: for L: windgrass, herbicidal effect: three weeks after application
Outline: as §2

[3] = foliage application, 99 g/ha, three weeks after application
[4] = foliage application, AAH 320 g/ha, three weeks after application
[5] = foliage application, AAH 80 g/ha, three weeks after application
[6] = foliage application, 320 g/ha, evaluated three weeks after application
[7] = foliage application, AAH 320 g/ha, evaluated three weeks after application
[8] = amount of applied herbicide 320 g/ha
[9] = amount of applied herbicide 320 g/ha, foliage application after 14-day growth, evaluated three weeks after application

SMILES: COc1c(C)cccc1-c1sc2ccccc2c1-c1c(O)c(C)nn(C)c1=O [1-067]
- herbicidal effect grade, P: chickweed (chickweed; [3]): 2 (Herbicidal rate of 20% or more and less than 40%)
- herbicidal effect on H (barnyard grass), rating 0-5 (barnyard grass [1]; 99 g/ha): 3 (Herbicidal rate of 40% or more and less than 70%)
- herbicidal effect grade, J: blackgrass (blackgrass; [3]): 0 (Herbicidal rate of 5% or less (almost no effect))
- herbicidal effect on D (Chinese sprangletop), rating 0-5 (Chinese sprangletop; 99 g/ha): 0 (Herbicidal rate of 5% or less (almost no effect))
- herbicidal effect grade, K: Italian ryegrass (Italian ryegrass; [3]): 0 (Herbicidal rate of 5% or less (almost no effect))
- herbicidal effect on E (rice flat sedge), rating 0-5 (rice flat sedge; 99 g/ha): 0 (Herbicidal rate of 5% or less (almost no effect))
- herbicidal effect grade, I: wild oat (wild oat; [3]): 0 (Herbicidal rate of 5% or less (almost no effect))
- herbicidal effect grade, R: persian speedwell (persian speedwell; 99 g/ha, three weeks after application): 0 (Herbicidal rate of 5% or less (almost no effect))
- herbicidal effect grade, G: green foxtail (green foxtail; [3]): 0 (Herbicidal rate of 5% or less (almost no effect))
- herbicidal effect grade, F: southern crabgrass (southern crabgrass; [3]): 0 (Herbicidal rate of 5% or less (almost no effect))
- herbicidal effect grade, M: velvetleaf (velvetleaf; [3]): 2 (Herbicidal rate of 20% or more and less than 40%)
- herbicidal effect grade, N: redroot pigweed (redroot pigweed; [3]): 1 (Herbicidal rate of 5% or more and less than 20%)
- herbicidal effect grade, H: barnyard grass (barnyard grass [2]; [3]): 0 (Herbicidal rate of 5% or less (almost no effect))
- herbicidal effect grade, O: lambsquarters (lambsquarters; [3]): 0 (Herbicidal rate of 5% or less (almost no effect))

SMILES: Cc1nn(C)c(=O)c(-c2c(-c3ccc(OCC(=O)NCC(F)(F)F)cc3)sc3ccccc23)c1O [1-145]
- P: chickweed, herbicidal effect (chickweed; [4]): 3 (Herbicidal rate of 40% or more and less than 70%)
- J: blackgrass, herbicidal effect (blackgrass; [4]): 0 (Herbicidal rate of 5% or less (almost no effect))
- K: Italian ryegrass, herbicidal effect (Italian ryegrass; [4]): 0 (Herbicidal rate of 5% or less (almost no effect))
- I: wild oat, herbicidal effect (wild oat; [4]): 0 (Herbicidal rate of 5% or less (almost no effect))
- R: persian speedwell, herbicidal effect (persian speedwell; AAH 320 g/ha, three weeks after application): 0 (Herbicidal rate of 5% or less (almost no effect))
- L: windgrass, herbicidal effect (windgrass; foliage application, AAH 320 g/ha): 0 (Herbicidal rate of 5% or less (almost no effect))
- G: green foxtail, herbicidal effect (green foxtail; [4]): 0 (Herbicidal rate of 5% or less (almost no effect))
- F: southern crabgrass, herbicidal effect (southern crabgrass; [4]): 0 (Herbicidal rate of 5% or less (almost no effect))
- M: velvetleaf, herbicidal effect (velvetleaf; [4]): 0 (Herbicidal rate of 5% or less (almost no effect))
- N: redroot pigweed, herbicidal effect (redroot pigweed; [4]): 0 (Herbicidal rate of 5% or less (almost no effect))
- H: barnyard grass, herbicidal effect (barnyard grass [2]; [4]): 0 (Herbicidal rate of 5% or less (almost no effect))
- O: lambsquarters, herbicidal effect (lambsquarters; [4]): 0 (Herbicidal rate of 5% or less (almost no effect))

SMILES: COc1cc(OC)cc(-c2sc3ccccc3c2-c2c(O)c(OC)nn(C)c2=O)c1 [1-184]
- P: chickweed, herbicidal effect (chickweed; [5]): 4 (Herbicidal rate of 70% or more and less than 90%)
- J: blackgrass, herbicidal effect (blackgrass; [5]): 0 (Herbicidal rate of 5% or less (almost no effect))
- K: Italian ryegrass, herbicidal effect (Italian ryegrass; [5]): 0 (Herbicidal rate of 5% or less (almost no effect))
- I: wild oat, herbicidal effect (wild oat; [5]): 0 (Herbicidal rate of 5% or less (almost no effect))
- R: persian speedwell, herbicidal effect (persian speedwell; AAH 80 g/ha, three weeks after application): 0 (Herbicidal rate of 5% or less (almost no effect))
- L: windgrass, herbicidal effect (windgrass; foliage application, AAH 80 g/ha): 0 (Herbicidal rate of 5% or less (almost no effect))
- G: green foxtail, herbicidal effect (green foxtail; [5]): 0 (Herbicidal rate of 5% or less (almost no effect))
- F: southern crabgrass, herbicidal effect (southern crabgrass; [5]): 0 (Herbicidal rate of 5% or less (almost no effect))
- M: velvetleaf, herbicidal effect (velvetleaf; [5]): 0 (Herbicidal rate of 5% or less (almost no effect))
- N: redroot pigweed, herbicidal effect (redroot pigweed; [5]): 0 (Herbicidal rate of 5% or less (almost no effect))
- H: barnyard grass, herbicidal effect (barnyard grass [2]; [5]): 0 (Herbicidal rate of 5% or less (almost no effect))
- O: lambsquarters, herbicidal effect (lambsquarters; [5]): 0 (Herbicidal rate of 5% or less (almost no effect))

SMILES: CCCC(=O)Oc1c(C)nn(C)c(=O)c1-c1c(-c2ccccc2SC)sc2ccc(C)cc12 [2-143]
- herbicidal effect on P: chickweed (criteria 0-5) (chickweed; [6]): 3 (Herbicidal rate of 40% or more and less than 70%)
- herbicidal effect on J: blackgrass (criteria 0-5) (blackgrass; [6]): 0 (Herbicidal rate of 5% or less (almost no effect))
- herbicidal effect on K: Italian ryegrass (criteria 0-5) (Italian ryegrass; [6]): 0 (Herbicidal rate of 5% or less (almost no effect))
- herbicidal effect on I: wild oat (criteria 0-5) (wild oat; [6]): 0 (Herbicidal rate of 5% or less (almost no effect))
- herbicidal effect on R: persian speedwell (criteria 0-5) (persian speedwell; 320 g/ha, evaluated three weeks after application): 0 (Herbicidal rate of 5% or less (almost no effect))
- herbicidal effect on L: windgrass (criteria 0-5) (windgrass; [6]): 0 (Herbicidal rate of 5% or less (almost no effect))
- herbicidal effect on G: green foxtail (criteria 0-5) (green foxtail; [6]): 0 (Herbicidal rate of 5% or less (almost no effect))
- herbicidal effect on F: southern crabgrass (criteria 0-5) (southern crabgrass; [6]): 0 (Herbicidal rate of 5% or less (almost no effect))
- herbicidal effect on M: velvetleaf (criteria 0-5) (velvetleaf; [6]): 0 (Herbicidal rate of 5% or less (almost no effect))
- herbicidal effect on N: redroot pigweed (criteria 0-5) (redroot pigweed; [6]): 0 (Herbicidal rate of 5% or less (almost no effect))
- herbicidal effect on H: barnyard grass (criteria 0-5) (barnyard grass [2]; [6]): 0 (Herbicidal rate of 5% or less (almost no effect))
- herbicidal effect on O: lambsquarters (criteria 0-5) (lambsquarters; [6]): 0 (Herbicidal rate of 5% or less (almost no effect))

SMILES: C=CCOc1c(C)nn(C)c(=O)c1-c1c(-c2ccc(OC(F)F)cc2)sc2ccc(F)cc12 [2-300]
- P: chickweed, herbicidal effect (criteria 0-5) (chickweed; [7]): 5 (Herbicidal rate of 90% or more (almost completely withered))
- herbicidal effect on H: barnyard grass (barnyard grass [1]; [8]): 3 (Herbicidal rate of 40% or more and less than 70%)
- J: blackgrass, herbicidal effect (criteria 0-5) (blackgrass; [7]): 0 (Herbicidal rate of 5% or less (almost no effect))
- K: Italian ryegrass, herbicidal effect (criteria 0-5) (Italian ryegrass; [7]): 0 (Herbicidal rate of 5% or less (almost no effect))
- herbicidal effect on E: rice flat sedge (rice flat sedge; [8]): 3 (Herbicidal rate of 40% or more and less than 70%)
- I: wild oat, herbicidal effect (criteria 0-5) (wild oat; [7]): 0 (Herbicidal rate of 5% or less (almost no effect))
- R: persian speedwell, herbicidal effect (criteria 0-5) (persian speedwell; AAH 320 g/ha, evaluated three weeks after application): 5 (Herbicidal rate of 90% or more (almost completely withered))
- G: green foxtail, herbicidal effect (criteria 0-5) (green foxtail; [7]): 0 (Herbicidal rate of 5% or less (almost no effect))
- F: southern crabgrass, herbicidal effect (criteria 0-5) (southern crabgrass; [7]): 0 (Herbicidal rate of 5% or less (almost no effect))
- M: velvetleaf, herbicidal effect (criteria 0-5) (velvetleaf; [7]): 1 (Herbicidal rate of 5% or more and less than 20%)
- N: redroot pigweed, herbicidal effect (criteria 0-5) (redroot pigweed; [7]): 3 (Herbicidal rate of 40% or more and less than 70%)
- H: barnyard grass, herbicidal effect (criteria 0-5) (barnyard grass [2]; [7]): 0 (Herbicidal rate of 5% or less (almost no effect))
- O: lambsquarters, herbicidal effect (criteria 0-5) (lambsquarters; [7]): 5 (Herbicidal rate of 90% or more (almost completely withered))

SMILES: CCCC(=O)Oc1c(C)nn(C)c(=O)c1-c1c(-c2ccccc2OCOC)sc2c(Cl)cccc12 [4-084]
- Herbicidal effect by foliage application, P: chickweed (chickweed; [9]): 4 (Herbicidal rate of 70% or more and less than 90%)
- herbicidal effect on barnyard grass (H) (barnyard grass [1]; 320 g/ha): 5 (Herbicidal rate of 90% or more (almost completely withered))
- Herbicidal effect by foliage application, J: blackgrass (blackgrass; [9]): 0 (Herbicidal rate of 5% or less (almost no effect))
- herbicidal effect on Chinese sprangletop (D) (Chinese sprangletop; 320 g/ha): 4 (Herbicidal rate of 70% or more and less than 90%)
- Herbicidal effect by foliage application, K: Italian ryegrass (Italian ryegrass; [9]): 0 (Herbicidal rate of 5% or less (almost no effect))
- herbicidal effect on rice flat sedge (E) (rice flat sedge; 320 g/ha): 4 (Herbicidal rate of 70% or more and less than 90%)
- Herbicidal effect by foliage application, I: wild oat (wild oat; [9]): 0 (Herbicidal rate of 5% or less (almost no effect))
- Herbicidal effect by foliage application, L: windgrass (windgrass; [9]): 0 (Herbicidal rate of 5% or less (almost no effect))
- Herbicidal effect by foliage application, G: green foxtail (green foxtail; [9]): 2 (Herbicidal rate of 20% or more and less than 40%)
- Herbicidal effect by foliage application, F: southern crabgrass (southern crabgrass; [9]): 3 (Herbicidal rate of 40% or more and less than 70%)
- Herbicidal effect by foliage application, M: velvetleaf (velvetleaf; [9]): 4 (Herbicidal rate of 70% or more and less than 90%)
- Herbicidal effect by foliage application, N: redroot pigweed (redroot pigweed; [9]): 5 (Herbicidal rate of 90% or more (almost completely withered))
- Herbicidal effect by foliage application, H: barnyard grass (barnyard grass [2]; [9]): 3 (Herbicidal rate of 40% or more and less than 70%)
- Herbicidal effect by foliage application, O: lambsquarters (lambsquarters; [9]): 0 (Herbicidal rate of 5% or less (almost no effect))
